The target in assay [1] is T1, human ALK5 (Homo sapiens, UniProt P36897).
T1 sequence (P36897 162-503): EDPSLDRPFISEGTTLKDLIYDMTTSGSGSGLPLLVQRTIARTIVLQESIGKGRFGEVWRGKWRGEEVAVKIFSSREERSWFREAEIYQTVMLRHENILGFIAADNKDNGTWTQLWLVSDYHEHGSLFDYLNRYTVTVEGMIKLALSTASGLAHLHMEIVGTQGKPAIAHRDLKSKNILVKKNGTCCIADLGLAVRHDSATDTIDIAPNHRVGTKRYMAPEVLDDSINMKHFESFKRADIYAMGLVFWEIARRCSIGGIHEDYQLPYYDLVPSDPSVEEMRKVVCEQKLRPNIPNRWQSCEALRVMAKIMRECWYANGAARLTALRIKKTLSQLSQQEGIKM
Put plainly: ALK5 Enzyme Assay 2 (fluorescence polarisation probe displacement). The format is binding. Also on record: 6His tagged human ALK5 (residues162-503) was grown and purified from insect cells; 6His; made in house; host or cells: insect cells. An outline of the steps: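 Recombinant ALK5 (3 μg/mL) incubated with test compound in 50 mM HEPES pH7.4, 10 mM MgCl2, 1 mM DTT, 0.01% CHAPS. Displacement of a fluorescent quinazoline-based ALK5 probe (50 nM final) in presence of 1 μM ATP read by fluorescence polarisation.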
A general note: In fluorescence polarisation assays a small probe gives low polarisation when free and higher when bound to something large.

For assay [2], the target named is T1, human ALK5. The assay can be described thus: ALK5 Enzyme Assay 1. On the set-up: 6His tagged ALK5 protein (amino acids 162-503) expressed in insect cells; 6His; made in house; host or cells: insect cells. The assay is classed as biochemical. The protocol: This assay measures the ability of a compound to bind to and inhibit the activity of ALK5 protein in vitro. […] Assay measurements were performed in assay buffer comprising 60 mM HEPES pH 7.4, 3 mM MgCl2, 3 mM MnCl2, 3 μM Na orthovanadate, 1.2 mM DTT and 0.05% PEG2000. […] Reactions were performed in the presence of 200 μg/mL casein (Sigma-Aldrich C4765-10ML), 200 ng/mL ALK5, 0.5 μM ATP (Sigma-Aldrich A7699), 1 μCi/mL γ-33P ATP. Following addition of casein, ATP and compound, reactions were initiated by adding ALK5 enzyme and reactions run for 90 minutes. After incubation reactions were terminated by addition of 20 μL per well of 50% orthophosphoric acid. 20 minutes after addition of 70% v/v TCA, precipitated protein was transferred to GF/C 96 well plates using a Tomtec harvester with 1.5% orthophosphoric acid. […] All reactions were performed under linear kinetics.

Where [3] appears, read: read-out: EAA2: activity (μM) using Enzyme Assay 2.
Setting [4] is: read-out: EAA: activity (μM) using Enzyme Assay 1.

For the compound `Cc1cc(Oc2ccnc(Nc3ccc(F)cc3F)c2)c(-c2ccccn2)nc1C` [Example 37, N-(2,4-Difluorophenyl)-4-(5,6-dimethyl-2-pyridin-2-yl-pyridin-3-yl)oxy-pyridin-2-amine], the IC50 at human ALK5 [1] (setting [3]) turned out to be 0.0216 µM; at human ALK5 [2] (setting [4]) it was 0.036 µM.
For `Cc1cc(Oc2ccnc(Nc3ccc(N4CCN(C)CC4)cc3)c2)c(-c2ccccn2)nc1C` [Example 20, 4-(5,6-Dimethyl-2-pyridin-2-yl-pyridin-3-yl)oxy-N-[4-(4-methyl-piperazin-1-yl)phenyl]pyridin-2-amine], the IC50 at human ALK5 [1] (setting [3]) was determined as 0.0166 µM; at human ALK5 [2] (setting [4]), 0.0104 µM.
Turning to `Cc1ccc(Oc2ccnc(Nc3ccc(S(N)(=O)=O)cc3)c2)c(-c2ccccn2)n1` [Example 43, 4-{[4-(6-Methyl-2-pyridin-2-yl-pyridin-3-yl)oxypyridin-2-yl]-amino}benzene-sulfonamide], the IC50 on human ALK5 [1] (setting [3]) was 0.00728 µM; at human ALK5 [2] (setting [4]), 0.0162 µM.
With `COc1cc(Nc2cc(Oc3cccnc3)ccn2)cc(OC)c1OC` [Example 6, 4-Pyridin-3-yloxy-N-(3,4,5-trimethoxyphenyl)pyridin-2-amine], the IC50 at human ALK5 [1] (setting [3]) worked out at 1.97 µM; at human ALK5 [2] (setting [4]), 5.5 µM.
Consider `COc1cc(Nc2cc(Oc3cccnc3-c3ccc(NC(C)=O)cc3)ccn2)cc(OC)c1OC` [Example 51, N-[4-(3-{2-[(3,4,5-Trimethoxyphenyl)amino]pyridin-4-yl}-oxypyridin-2-yl)phenyl]acetamide], for which the IC50 on human ALK5 [1] (setting [3]) is 0.0274 µM; on human ALK5 [2] (setting [4]), 0.23 µM.
For the compound `COc1ccccc1Nc1cc(Oc2cc(C)c(C)nc2-c2ccccn2)ccn1` [Example 19, 4-(5,6-Dimethyl-2-pyridin-2-yl-pyridin-3-y1)oxy-N-(2-methoxy-phenyl)-pyridin-2-amine], the IC50 on human ALK5 [1] stood at 0.00216 µM; against human ALK5 [2] (EAA: activity (μM) using Enzyme Assay 1), 0.0128 µM.
Regarding `Cc1cc(Oc2ccnc(Nc3cccc(C#N)c3)c2)c(-c2ccccn2)nc1C` [Example 41, 3-{[4-(5,6-Dimethyl-2-pyridin-2-yl-pyridin-3-yl)oxypyridin-2-yl]-amino}-benzonitrile], the IC50 came out at 0.0123 µM at human ALK5 [1] (setting [3]) and 0.0141 µM at human ALK5 [2] (setting [4]).
As to `Cc1cc(Oc2ccnc(Nc3ccc(F)cc3)c2)c(-c2ccccn2)nc1C` [Example 10, 4-(5,6-Dimethyl-2-pyridin-2-yl-pyridin-3-yl)oxy-N-(4-fluorophenyl)pyridin-2-amine], the IC50 at human ALK5 [1] (setting [3]) is 0.0883 µM; at human ALK5 [2] (setting [4]), 0.017 µM.
As to `COc1cc(Nc2cc(Oc3ccc(C)nc3-c3cccc(F)c3)ccn2)cc(OC)c1OC` [Example 56, 4-[2-(3-Fluoro-phenyl)-6-methyl-pyridin-3-yl]oxy-N-(3,4,5-trimethoxy-phenyl)pyridin-2-amine], the IC50 on human ALK5 [1] (setting [3]) is 0.0795 µM; on human ALK5 [2] (setting [4]) it was 0.00379 µM.
In the case of `Cc1cc(Oc2ccnc(Nc3ccc(C#N)cc3)c2)c(-c2ccccn2)nc1C` [Example 34, 4-{[4-(5,6-Dimethyl-2-pyridin-2-yl-pyridin-3-yl)-oxypyridin-2-yl]amino}benzonitrile], the IC50 at human ALK5 [1] (setting [3]) is 0.0255 µM; at human ALK5 [2] (setting [4]) it was 0.0215 µM.
Turning to `COc1cc(Nc2cc(Oc3cccnc3-c3ccc(F)cc3)ccn2)cc(OC)c1OC` [Example 52, 4-[2-(4-Fluorophenyl)pyridin-3-yl]oxy-N-(3,4,5-trimethoxy-phenyl)pyridin-2-amine], the IC50 turned out to be 0.0329 µM at human ALK5 [1] (setting [3]) and 0.0156 µM on human ALK5 [2] (setting [4]).
As for `COc1cc(Nc2cc(Oc3ccc(C)nc3-c3cscc3C)ccn2)cc(OC)c1OC` [Example 46, 4-[6-Methyl-2-(4-methylthiophen-3-yl)pyridin-3-yl]oxy-N-(3,4,5-trimethoxyphenyl)pyridin-2-amine], the results for the IC50 at human ALK5 [1] (setting [3]) and at human ALK5 [2] (setting [4]) were 0.0175 µM and 0.0153 µM, respectively.
Consider `Cc1cc(Oc2ccnc(Nc3cccc(CO)c3)c2)c(-c2ccccn2)nc1C` [Example 38, (3-{[4-(5,6-Dimethyl-2-pyridin-2-yl-pyridin-3-yl)-oxypyridin-2-yl]amino}phenyl)methanol], for which the IC50 was determined as 0.00378 µM at human ALK5 [1] (setting [3]) and 0.00977 µM on human ALK5 [2] (setting [4]).

The values are drawn from patent US20090048269A1 (AstraZeneca AB, priority 2007, published 2009).
